{"source": "patent US8846330B2", "about": "“Methods and kits for the diagnosis of RyR1-related diseases” (The Henry M. Jackson Foundation for the Advancement of …, priority 2008, dated 2014)", "type_in_all_cases": "cell-based", "key": {"[1]": {"tested_on": "lymphocyte cells", "test": "4CmC-induced adenosine in swine lymphocyte cells, nucleosides assay (Example 4)", "conditions": "for EC50: Sus scrofa, Lymphocyte; for peak ADO level upon 4CmC stimulation, mean±SEM: near 1 mM 4CmC", "procedure": "Isolation of lymphocytes from whole blood: Lymphocyte cells were isolated from whole blood by Ficoll-Hypaque density gradient centrifugation technique (see Boyum A., Scand. J. Clip. Lab. 97:77-89 (1968)). Isolated lymphocyte cells were dispensed into 3-volume normal Hanks' balanced salt solution (HBSS) and centrifuged (10 minutes at 1000 RPM). The pellet was re-suspended in HBSS to lyse contaminating erythrocytes and spun. The later step was repeated one more time. To maintain simplicity of the protocol for possible MH diagnostic purposes no further purification was attempted. Lymphocyte cells were then cultured in RPMI-1640 media supplemented with 10% fetal bovine serum, […] penicillin and 2 mM glutamine. Cell cultures were incubated at 37° C. in a humidified chamber with 5% CO2. All experiments were completed within 4 days after isolation of lymphocyte cells from whole blood samples.\nNucleosides Assay Protocol: Briefly, lymphocyte cells (1−2×10^6 cells/test) were suspended in HBSS with or without Ca^2+/Mg^2+ (as indicated for each experiment) plus 0.1% bovine serum albumin (BSA). Experiments were carried out in the presence of the adenosine deaminase inhibitor erythro-9-(2-hydroxy-3-nonyl) adenine-HCl ([…]) to prevent deamination of adenosine to inosine (Lorbar et al., J Mol Cell Cardiol 31: 401-12 (1999)) and incubated at 37° C. for 10 minutes followed by treatment with different 4CmC concentrations (0.05-10 mM). Further incubation at 37° C. for an additional 45 minutes was also carried out. Final volumes of the test tubes were adjusted to 0.2 ml using HBSS buffer. Termination of the cell activity and purification of samples was accomplished by addition of 0.1 ml 12% perchloric acid followed by centrifugation at 5000 RPM for 10 minutes. Aliquots of the supernatant (50 μl) were assayed for adenosine and inosine content using HPLC.\nHPLC Conditions: The HPLC system consisted of a Waters Symmetry C18 column (4.6×250 mm) and mobile phase of 94% KH2PO4 (50 mM, pH 4.6) containing 1-heptanesulfonic acid (0.5 mM) and 6% acetonitrile. Under these conditions, retention times for inosine and adenosine were 4 and 7.3 min, respectively. Peak width of inosine and adenosine were 18 and 36 seconds, respectively. Eluting compounds were detected by their absorbance at 254 nm using a Waters photodiode array detector (model 996). Sample adenosine and inosine concentrations were obtained using a calibrated standard curve of concentrations vs. peak area.\nStatistics: Sample nucleosides concentrations were normalized to represent per 1 million cells and presented as means±SEM. The t-test was applied to test for differences between agonist-induced nucleosides in lymphocyte cells from MHS and normal swine. A P<0.05 considered to indicate statistical significance."}, "[2]": {"tested_on": "lymphocyte cells", "test": "4CmC-induced adenosine in human lymphocyte / immortalized B cells (Example 3)", "conditions": "for ADO level at maximum of 4CmC dose response, mean±SEM: 2 mM 4CmC, EHNA 0.1 mM"}, "[3]": {"tested_on": "lymphocyte cells", "test": "4CmC-induced adenosine plus inosine in cultured swine lymphocytes (Example 2)", "conditions": "for adenosine plus inosine level upon stimulation with 4CmC, mean±SEM: 5 mM 4CmC", "procedure": "Lymphocyte cells were isolated from whole arterial blood sample (40 ml) obtained from homozygous recessive MHS (n=5) and normal (n=3) swine by the Ficoll-Hypaque centrifugation technique. Lymphocyte cells were then cultured in RPMI-1640 media supplemented with 10% fetal bovine serum plus 100 units/liter penicillin at 37° C. under 5% CO2 for 2 to 3 weeks. After cell culture period, cell's (5−15×10^4 cells) were suspended in Hanks' balanced salt solution (HBSS)+1% bovine serum albumin and treated with specific RyR1 agonist 4-chloro-m-cresol (4CmC, 5 mM) at 37° C. in the presence and absence of inhibitor of adenosine deaminase erythro-9-(2-hydroxy-3-nonyl) adenine (EHNA, 0.1 mM) for 30 minutes. After purification using 12% HClO4 followed by centrifugation (10 minutes, 4000 RPM), aliquot of sample (50 μl) was assayed for adenosine and inosine content using high performance liquid chromatography (HPLC). Data are normalized to per 1 million cells, compared using one way ANOVA, and presented as mean±SEM. P<0.05 considered significant."}}, "note": "Entries after “also recorded” stand apart in the source; their conditions may differ. Where two headings read alike, the source gives them in different places."}
{"molecule": "Cc1cc(O)ccc1Cl", "note": "[4CmC, 4-chloro-m-cresol]", "values": [{"measurement": "4CmC-induced ADO in lymphocyte cells from MHS swine versus normal swine", "setting": "[1]", "result": "significantly greater; also recorded: significantly higher"}, {"measurement": "4CmC-induced ADO, mean±SEM", "setting": "[1]; 1 mM 4CmC, Ca2+/Mg2+-free HBSS, normal swine (n=6)", "result": "0.244 ± 0.026", "unit": "µM"}, {"measurement": "basal plus 4CmC-induced ADO range", "setting": "[1]; 1 mM 4CmC, MHS swine cells", "result": "0.250 to 0.537", "unit": "µM"}, {"measurement": "4CmC-induced ADO, mean±SEM", "setting": "[1]; 1 mM 4CmC, normal HBSS, normal swine (n=6)", "result": "0.326 ± 0.023", "unit": "µM"}, {"measurement": "increase in ADO formation in the presence of extracellular Ca2+", "setting": "[1]; 1 mM 4CmC, normal swine", "result": "25.2±5.1", "unit": "%"}, {"measurement": "basal plus 4CmC-induced ADO range", "setting": "[1]; 1 mM 4CmC, normal swine cells", "result": "0.145 to 0.209", "unit": "µM"}, {"measurement": "4CmC-induced ADO, mean±SEM", "setting": "[1]; 2 mM 4CmC, absence of extracellular Ca2+, normal swine", "result": "0.167 ± 0.018", "unit": "µM"}, {"measurement": "4CmC-induced adenosine relative to basal adenosine level", "setting": "[1]; 2 mM 4CmC, no FCCP, Ca2+/Mg2+ free HBSS, normal swine (n=5)", "result": 5.8, "unit": "fold"}, {"measurement": "increase in 4CmC-induced ADO formation in the presence of extracellular Ca2+", "setting": "[1]; 2 mM 4CmC, normal swine", "result": "41±3.3", "unit": "%"}, {"measurement": "4CmC-induced ADO, mean±SEM", "setting": "[1]; 2 mM 4CmC, presence of extracellular Ca2+, normal swine", "result": "0.284 ± 0.023", "unit": "µM"}, {"measurement": "increase in sensitivity to 4CmC in the MHS cell population", "setting": "[1]; MHS vs normal swine cells", "result": "~60", "unit": "%"}, {"measurement": "EC50", "setting": "[1]; read-out: estimated EC50 of 4CmC for ADO formation, MHS swine cells", "result": "550 ± 60", "unit": "µM"}, {"measurement": "EC50", "setting": "[1]; read-out: estimated EC50 of 4CmC for ADO formation, normal swine cells", "result": "340 ± 40", "unit": "µM"}, {"measurement": "peak ADO level upon 4CmC stimulation, mean±SEM", "setting": "[1]; normal HBSS, MHS swine cells (n=7)", "result": "0.389 ± 0.033", "unit": "µM"}, {"measurement": "peak ADO level upon 4CmC stimulation, mean±SEM", "setting": "[1]; normal HBSS, normal swine cells (n=7)", "result": "0.199 ± 0.005", "unit": "µM"}, {"measurement": "4CmC concentration at which ADO levels peaked", "setting": "[1]; swine lymphocytes, normal HBSS", "result": "~1", "unit": "mM"}, {"measurement": "ADO level at maximum of 4CmC dose response, mean±SEM", "setting": "[2]; MHS cells", "result": "1.71 ± 0.13", "unit": "µM"}, {"measurement": "ADO level at maximum of 4CmC dose response, mean±SEM", "setting": "[2]; normal cells", "result": "0.61 ± 0.11", "unit": "µM"}, {"measurement": "4CmC-induced adenosine in MHS (CHCT-positive) versus normal / CHCT-negative lymphocyte cells", "setting": "[2]; FIG. 5 and 6", "result": "significantly higher; also recorded: significantly greater"}, {"measurement": "4CmC concentration at which ADO levels maximized", "setting": "[2]; human lymphocytes", "result": 2, "unit": "mM"}, {"measurement": "adenosine plus inosine level upon stimulation with 4CmC, mean±SEM", "setting": "[3]; MHS swine (n=5)", "result": "8.06 ± 0.9", "unit": "µM"}, {"measurement": "adenosine plus inosine level upon stimulation with 4CmC, mean±SEM", "setting": "[3]; normal swine (n=3)", "result": "1.16 ± 0.3", "unit": "µM"}, {"measurement": "increase of nucleoside production on 4CmC stimulation", "setting": "[3]; lymphocytes from MHS swine", "result": "nine-fold increase"}, {"measurement": "effect of 4CmC stimulation on nucleoside (adenosine plus inosine) production", "setting": "[3]; lymphocytes from normal swine", "result": "minimal, if any, effect"}]}
